The record followed here is BindingDB's records for doi:10.7270/Q2TX3CTT (Broad Institute, 2010).

In general, EC50 refers to the concentration at which the effect is half-maximal. The low end stands for greater potency, the high end for weaker potency.

In the test the target is Glycogen synthase kinase-3 beta (Homo sapiens, UniProt P49841). The test is described as follows: concentration-response blocking of human GSK3B – biochemical, luminescence, cell-free homogeneous, retest, dose response (AID 434954).
Glycogen synthase kinase-3 beta, sequence (P49841 whole entry): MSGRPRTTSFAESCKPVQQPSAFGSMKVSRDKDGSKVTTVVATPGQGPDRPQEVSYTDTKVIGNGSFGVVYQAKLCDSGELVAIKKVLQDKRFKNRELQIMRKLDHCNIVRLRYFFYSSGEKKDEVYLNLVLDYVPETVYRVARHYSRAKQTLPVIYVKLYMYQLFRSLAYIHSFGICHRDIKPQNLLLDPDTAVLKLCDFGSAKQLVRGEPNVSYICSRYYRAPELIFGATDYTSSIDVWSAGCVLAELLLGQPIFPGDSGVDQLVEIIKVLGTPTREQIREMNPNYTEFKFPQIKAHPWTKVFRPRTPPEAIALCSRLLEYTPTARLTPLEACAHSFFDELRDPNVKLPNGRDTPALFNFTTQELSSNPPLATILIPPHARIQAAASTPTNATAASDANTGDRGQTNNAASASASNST
Compound `O=C1NCCCc2c1oc1cc(Br)c(O)c(Br)c21` [MLS000043345] registered an EC50 of 40.7 µM.
Compound `COc1ccc(-c2nc(-c3ccccc3)[nH]c(=O)c2C#N)cc1` [SMR000168458] returned an EC50 greater than 300 µM.
For `COc1ccc(C(=O)NCC(=O)NN=Cc2ccc(C)o2)cc1OC` [3,4-dimethoxy-N-(2-{2-[(5-methyl-2-furyl)methylene]hydrazino}-2-oxoethyl)benzamide], the EC50 was greater than 300 µM.
As to `O=C(NCCc1nnc2ccc(NCC3CCCO3)nn12)c1ccccc1` (stereo not given) [N-(2-{6-[(tetrahydrofuran-2-ylmethyl)amino][1,2,4]triazolo[4,3-b]pyridazin-3-yl}ethyl)benzamide], the EC50 was greater than 300 µM.
For the compound `CCCCC(=O)Nc1ccc(C(=O)NNC(=O)CCCOc2ccc(Cl)cc2Cl)cc1` [N-[4-[[[4-(2,4-dichlorophenoxy)-1-oxobutyl]hydrazo]-oxomethyl]phenyl]pentanamide], the EC50 is greater than 300 µM.
The result for `Nc1nc(Nc2cccc(Cl)c2)nc(NCCO)c1[N+](=O)[O-]` reads 1.73 µM.
The compound `CNc1nc(N)c([N+](=O)[O-])c(NCCO)n1` gave an EC50 of 67.1 µM.
With `CCOC(=O)c1sc2c(c1C)C(c1cccs1)C1C(=O)CCCC1=N2` (stereo not given) [MLS000082170] the figure was greater than 300 µM.
In turn, `Oc1ccc(-c2nncn2-c2ccccc2)cc1` [SMR000274861] displayed an EC50 of 7.15 µM.
Take `O=C(CCSCCc1ccccn1)Nc1cc(F)ccc1F` [N-(2,5-difluorophenyl)-3-(2-pyridin-2-ylethylsulfanyl)propanamide]: the EC50 is greater than 300 µM.
With `COc1ccc2nc(C)cc(N3CCOCC3)c2c1` [4-(6-methoxy-2-methyl-4-quinolinyl)morpholine] the figure was greater than 300 µM.
`CCN(CC)S(=O)(=O)c1cccc(-n2cc(O)c(-c3ccccc3)c2N)c1` [SMR000368326] returned a half-maximal effective concentration (EC50) greater than 300 µM.
`CCOC(=O)c1ccc(NC(=O)Nc2ccccn2)cc1` [MLS000679333] had an EC50 greater than 300 µM.
The result for `CCc1ccc(C(=O)c2cnc3ccc(OC)cc3c2N2CCN(CC)CC2)cc1` [(4-ethylphenyl)-[4-(4-ethylpiperazin-1-yl)-6-methoxy-quinolin-3-yl]methanone] reads 20.7 µM; that for `Cc1ncc(C=C2C(=O)Nc3ccccc32)[nH]1` [3-[(Z)-(2-methyl-1H-imidazol-4-yl)methylidene]-1H-indol-2-one], greater than 300 µM; that for `O=C(CCSc1nnc(-c2ccncc2)o1)Nc1ccc(F)cc1` [N-(4-fluorophenyl)-3-[(5-pyridin-4-yl-1,3,4-oxadiazol-2-yl)thio]propanamide], greater than 300 µM.
With `CCCN(CCC)Cc1c(C(=O)NN=Cc2ccco2)nnn1-c1nonc1N` the figure was greater than 300 µM; with `COc1cc(C2C(C(=O)c3cccs3)C(=O)C(=O)N2CCN2CCOCC2)ccc1OCCC(C)C` (stereo not given) [SMR000476070], greater than 300 µM; with `CCC(C)NC(=O)CNC(=S)N(CCCN1CCOCC1)Cc1cccs1` (stereo not given) [N-butan-2-yl-2-[[3-morpholin-4-ylpropyl(thiophen-2-ylmethyl)carbamothioyl]amino]ethanamide], greater than 300 µM.
With `CCCCn1nc(NC(=O)COC)c2cc3cc(OC)ccc3nc21` [N-(1-butyl-6-methoxy-3-pyrazolo[3,4-b]quinolinyl)-2-methoxyacetamide] the figure was greater than 300 µM; with `O=C(NCc1ccccc1)c1ccc2nccnc2c1` [N-(phenylmethyl)-6-quinoxalinecarboxamide], greater than 300 µM.
In the case of `O=C(CSc1nnc(-c2ccncc2)o1)Oc1ccccc1` [SMR000006341], the EC50 was greater than 300 µM.
The compound `COc1ccccc1C(=O)Oc1ccc(C(C)(C)C)cc1` returned an EC50 greater than 300 µM.
The result for `COc1ccc2oc(C)c(C(=O)c3ccc(C)cc3)c2c1` [(5-methoxy-2-methyl-3-benzofuranyl)-(4-methylphenyl)methanone] reads greater than 300 µM.
With `CCCn1nc(NC(=O)C2CCCO2)c2cc3ccc(C)cc3nc21` (stereo not given) [N-(7-methyl-1-propyl-pyrazolo[3,4-b]quinolin-3-yl)oxolane-2-carboxamide] the figure was greater than 300 µM; with `N#CC(C#N)=Cc1cc2ccccc2nc1N1CCOCC1` [2-[(2-morpholin-4-ylquinolin-3-yl)methylidene]propanedinitrile], greater than 300 µM.
As to `COc1ccc(CNC(=O)CN(Cc2ccc(OC)cc2)C(=O)CCC(=O)Nc2ccccn2)cc1` [SMR000600506], the EC50 worked out at 52.5 µM.
Regarding `O=C(COC(=O)C1CCN(/C=C/C(=O)C(F)(F)F)CC1)Nc1ccccc1` [MLS000390182], the EC50 was greater than 300 µM.
The result for `Oc1ccccc1CN=Nc1nnn[nH]1` [(6E)-6-[(2H-tetrazol-5-ylhydrazo)methylidene]-1-cyclohexa-2,4-dienone] reads greater than 300 µM; that for `c1cncc(-c2nc(NCC3CCCO3)c3ccccc3n2)c1` (stereo not given), greater than 300 µM.
Compound `Cc1cccc(-c2nnc(SCc3ccccc3)o2)c1` [MLS000067803] displayed an EC50 greater than 300 µM.
As to `COc1cccc(Nc2nc(-c3ccccc3)nc3ccccc23)c1`, the EC50 is greater than 300 µM.
`COc1ccc(C=C2SC(Nc3ccccc3OC)=NC2=O)cc1` [SMR000517219] showed an EC50 greater than 300 µM.
With `Cc1ccc(S(=O)(=O)N(C)C)cc1NC(=O)c1ccc(OC(F)(F)F)cc1` [SMR000247294] the figure was greater than 300 µM; with `CC(C=Cc1ccccc1F)=NNC(=O)C(C)C` [N-[[(E)-4-(2-fluorophenyl)but-3-en-2-ylidene]amino]-2-methylpropanamide], greater than 300 µM; with `Nc1nonc1-n1nnc(C(=O)NN=Cc2ccccn2)c1-c1ccccc1` [1-(4-azanyl-1,2,5-oxadiazol-3-yl)-5-phenyl-N-(pyridin-2-ylmethylideneamino)-1,2,3-triazole-4-carboxamide], 65.6 µM.
The result for `CCOC(=O)c1cnc2ccc(OCC)cc2c1N1CCN(c2ccccc2)CC1` [SMR000130091] reads 29 µM.
Take `Cc1cc(OC(C)C)c2c(-c3ccccc3)cc(=O)oc2c1` [SMR000141385]: the EC50 is greater than 300 µM.
The result for `CC(C)N(Cc1nnc(-c2ccc(Cl)cc2)o1)C(=O)C1=COCCO1` reads greater than 300 µM.
For `CCCn1c(SCC(=O)N2CCCCC2)nnc1-c1ccccn1` [1-piperidin-1-yl-2-[(4-propyl-5-pyridin-2-yl-1,2,4-triazol-3-yl)sulfanyl]ethanone], the EC50 is greater than 300 µM.
The result for `CC1(C)CC(=O)C=C(Nc2ccc3c(c2)OCCO3)C1` [3-(2,3-dihydro-1,4-benzodioxin-6-ylamino)-5,5-dimethyl-1-cyclohex-2-enone] reads greater than 300 µM; that for `Nc1nc(NCCO)nc(NC2CCCCC2)c1[N+](=O)[O-]` [2-[[4-amino-6-(cyclohexylamino)-5-nitro-2-pyrimidinyl]amino]ethanol], 1.36 µM; that for `Cc1ccc(Nc2nc(NCCCN3CCOCC3)nc(N)c2[N+](=O)[O-])cc1` [N4-(4-methylphenyl)-N2-(3-morpholin-4-ylpropyl)-5-nitro-pyrimidine-2,4,6-triamine], greater than 300 µM.
`CN(C)C(CNC(=O)c1ccc2ccccc2c1)c1ccco1` (stereo not given) [SMR000377096] returned an EC50 greater than 300 µM.
With `Cc1ccc(S(=O)(=O)CC(=O)c2cc3cccc(C)c3oc2=O)cc1` [8-methyl-3-[2-(4-methylphenyl)sulfonyl-1-oxoethyl]-1-benzopyran-2-one] the figure was greater than 300 µM.
